Data: ChEMBL document CHEMBL3745709, “Synthesis of novel ethyl 1-ethyl-6-fluoro-7-(fatty amido)-1,4-dihydro-4-oxoquinoline-3-carboxylate derivatives and their biological evaluation” (Bioorg Med Chem Lett, 2016)
Values after ≈ are worked out from the molar mass of the structure shown.

Legend:
Pichia sporocuriosa [1] = assay: Fungicidal activity against Issatchenkia hanoiensis MTCC 4755 assessed as microbial killing after 24 hrs; assay type: functional; conditions: MTCC 4755, 24 h
Bacillus subtilis [2] = assay: Antibiofilm activity against Bacillus subtilis MTCC 121 after 24 hrs by crystal violet staining method; assay type: functional, organism-based; conditions: MTCC 121, 24 h
Staphylococcus aureus [3] = assay: Antibiofilm activity against Staphylococcus aureus MTCC 96 after 24 hrs by crystal violet staining method; assay type: functional, organism-based; conditions: MTCC 96, 24 h
[4] = Cytotoxicity against human DU145 cells assessed as reduction in cell viability by MTT assay; assay type: functional, cell-based; conditions: DU-145
A549 [5] = assay: Cytotoxicity against human A549 cells assessed as reduction in cell viability by MTT assay; assay type: functional, cell-based
[6] = Cytotoxicity against human SKOV3 cells assessed as reduction in cell viability by MTT assay; assay type: functional, cell-based; conditions: SK-OV-3
MCF7 = assay: Cytotoxicity against human MCF7 cells assessed as reduction in cell viability by MTT assay; assay type: functional, cell-based
[7] = Cytotoxicity against human IMR90 cells assessed as reduction in cell viability by MTT assay; assay type: cell-based; conditions: IMR-90
IMR-90 [8] = assay: Selectivity index, ratio of IC50 for human IMR90 cells to IC50 for human DU145 cells; assay type: functional
A549 [9] = assay: Selectivity index, ratio of IC50 for human IMR90 cells to IC50 for human A549 cells; assay type: functional
SK-OV-3 = assay: Selectivity index, ratio of IC50 for human IMR90 cells to IC50 for human SKOV3 cells; assay type: functional
IMR-90 [10] = assay: Selectivity index, ratio of IC50 for human IMR90 cells to IC50 for human MCF7 cells; assay type: functional
[11] = Antioxidant activity assessed as DPPH free radical scavenging activity; assay type: physicochemical
Micrococcus luteus = assay: Antibacterial activity against Micrococcus luteus MTCC 2470 assessed as inhibition zone after 24 hrs at 30 degC by well diffusion method; assay type: functional; conditions: MTCC 2470, 24 h
Staphylococcus aureus [12] = assay: Antibacterial activity against Staphylococcus aureus MTCC 96 […] after 24 hrs at 30 degC by well diffusion method; assay type: functional; conditions: MTCC 96, 24 h
Staphylococcus aureus [13] = assay: Antibacterial activity against Staphylococcus aureus MLS-16 MTCC 2940 assessed as inhibition zone after 24 hrs at 30 degC by well diffusion method; assay type: functional; conditions: MLS-16 MTCC 2940, 24 h
Bacillus subtilis [14] = assay: Antibacterial activity against Bacillus subtilis MTCC 121 assessed as inhibition zone after 24 hrs at 30 degC by well diffusion method; assay type: functional; conditions: MTCC 121, 24 h
Escherichia coli [15] = assay: Antibacterial activity against Escherichia coli MTCC 739 assessed as inhibition zone after 24 hrs at 30 degC by well diffusion method; assay type: functional; conditions: MTCC 739, 24 h
Pseudomonas aeruginosa = assay: Antibacterial activity against Pseudomonas aeruginosa MTCC 2453 assessed as inhibition zone after 24 hrs at 30 degC by well diffusion method; assay type: functional; conditions: MTCC 2453, 24 h
Raoultella planticola = assay: Antibacterial activity against Klebsiella planticola MTCC 530 assessed as inhibition zone after 24 hrs at 30 degC by well diffusion method; assay type: functional; conditions: MTCC 530, 24 h
Candida albicans [16] = assay: Antifungal activity against Candida albicans MTCC 3017 […] after 24 hrs at 30 degC by well diffusion method; assay type: functional; conditions: MTCC 3017, 24 h
Bacillus subtilis [17] = assay: Bactericidal activity against Bacillus subtilis MTCC 121 assessed as microbial killing after 24 hrs; assay type: functional; conditions: MTCC 121, 24 h
Staphylococcus aureus [18] = assay: Bactericidal activity against Staphylococcus aureus MTCC 96 assessed as microbial killing after 24 hrs; assay type: functional; conditions: MTCC 96, 24 h
Staphylococcus aureus [19] = assay: Bactericidal activity against Staphylococcus aureus MLS-16 MTCC 2940 assessed as microbial killing after 24 hrs; assay type: functional; conditions: MLS-16 MTCC 2940, 24 h
Escherichia coli [20] = assay: Bactericidal activity against Escherichia coli MTCC 739 assessed as microbial killing after 24 hrs; assay type: functional; conditions: MTCC 739, 24 h
Candida albicans [21] = assay: Antifungal activity against Candida albicans MTCC 183 assessed as inhibition zone after 24 hrs at 30 degC by well diffusion method; assay type: functional; conditions: MTCC 183, 24 h
Candida albicans [22] = assay: Antifungal activity against Candida albicans MTCC 227 assessed as inhibition zone after 24 hrs at 30 degC by well diffusion method; assay type: functional; conditions: MTCC 227, 24 h
Candida albicans [23] = assay: Antifungal activity against Candida albicans MTCC 854 assessed as inhibition zone after 24 hrs at 30 degC by well diffusion method; assay type: functional; conditions: MTCC 854, 24 h
Candida albicans [24] = assay: Antifungal activity against Candida albicans MTCC 1637 assessed as inhibition zone after 24 hrs at 30 degC by well diffusion method; assay type: functional; conditions: MTCC 1637, 24 h
Candida albicans [25] = assay: Antifungal activity against Candida albicans MTCC 3018 assessed as inhibition zone after 24 hrs at 30 degC by well diffusion method; assay type: functional; conditions: MTCC 3018, 24 h
Candida albicans [26] = assay: Antifungal activity against Candida albicans MTCC 3958 assessed as inhibition zone after 24 hrs at 30 degC by well diffusion method; assay type: functional; conditions: MTCC 3958, 24 h
Candida albicans [27] = assay: Antifungal activity against Candida albicans MTCC 4748 assessed as inhibition zone after 24 hrs at 30 degC by well diffusion method; assay type: functional; conditions: MTCC 4748, 24 h
Candida albicans [28] = assay: Antifungal activity against Candida albicans MTCC 7315 assessed as inhibition zone after 24 hrs at 30 degC by well diffusion method; assay type: functional; conditions: MTCC 7315, 24 h
Candida parapsilosis [29] = assay: Antifungal activity against Candida parapsilosis MTCC 1744 assessed as inhibition zone after 24 hrs at 30 degC by well diffusion method; assay type: functional; conditions: Lodderomyces parapsilosis, MTCC 1744, 24 h
[Candida] aaseri [30] = Antifungal activity against Candida aaseri MTCC 1962 assessed as inhibition zone after 24 hrs at 30 degC by well diffusion method; assay type: functional; conditions: Yamadazyma aaseri, MTCC 1962, 24 h
Nakaseomyces glabratus [31] = assay: Antifungal activity against Candida glabrata MTCC 3019 assessed as inhibition zone after 24 hrs at 30 degC by well diffusion method; assay type: functional; conditions: MTCC 3019, 24 h
Pichia kudriavzevii [32] = assay: Antifungal activity against Candida krusei MTCC 3020 assessed as inhibition zone after 24 hrs at 30 degC by well diffusion method; assay type: functional; conditions: MTCC 3020, 24 h
Pichia sporocuriosa [33] = assay: Antifungal activity against Issatchenkia hanoiensis MTCC 4755 assessed as inhibition zone after 24 hrs at 30 degC by well diffusion method; assay type: functional; conditions: MTCC 4755, 24 h
Candida albicans [34] = assay: Fungicidal activity against Candida albicans MTCC 183 assessed as microbial killing after 24 hrs; assay type: functional; conditions: MTCC 183, 24 h
Candida albicans [35] = assay: Fungicidal activity against Candida albicans MTCC 227 assessed as microbial killing after 24 hrs; assay type: functional; conditions: MTCC 227, 24 h
Candida albicans [36] = assay: Fungicidal activity against Candida albicans MTCC 854 assessed as microbial killing after 24 hrs; assay type: functional; conditions: MTCC 854, 24 h
Candida albicans [37] = assay: Fungicidal activity against Candida albicans MTCC 1637 assessed as microbial killing after 24 hrs; assay type: functional; conditions: MTCC 1637, 24 h
Candida albicans [38] = assay: Fungicidal activity against Candida albicans MTCC 3017 assessed as microbial killing after 24 hrs; assay type: functional; conditions: MTCC 3017, 24 h
Candida albicans [39] = assay: Fungicidal activity against Candida albicans MTCC 3018 assessed as microbial killing after 24 hrs; assay type: functional; conditions: MTCC 3018, 24 h
Candida albicans [40] = assay: Fungicidal activity against Candida albicans MTCC 3958 assessed as microbial killing after 24 hrs; assay type: functional; conditions: MTCC 3958, 24 h
Candida albicans [41] = assay: Fungicidal activity against Candida albicans MTCC 4748 assessed as microbial killing after 24 hrs; assay type: functional; conditions: MTCC 4748, 24 h
Candida albicans [42] = assay: Fungicidal activity against Candida albicans MTCC 7315 assessed as microbial killing after 24 hrs; assay type: functional; conditions: MTCC 7315, 24 h
Candida parapsilosis [43] = assay: Fungicidal activity against Candida parapsilosis MTCC 1744 assessed as microbial killing after 24 hrs; assay type: functional; conditions: Lodderomyces parapsilosis, MTCC 1744, 24 h
[Candida] aaseri [44] = Fungicidal activity against Candida aaseri MTCC 1962 assessed as microbial killing after 24 hrs; assay type: functional; conditions: Yamadazyma aaseri, MTCC 1962, 24 h
Nakaseomyces glabratus [45] = assay: Fungicidal activity against Candida glabrata MTCC 3019 assessed as microbial killing after 24 hrs; assay type: functional; conditions: MTCC 3019, 24 h
Pichia kudriavzevii [46] = assay: Fungicidal activity against Candida krusei MTCC 3020 assessed as microbial killing after 24 hrs; assay type: functional; conditions: MTCC 3020, 24 h
Staphylococcus aureus [47] = assay: Antibiofilm activity against Staphylococcus aureus MLS-16 MTCC 2940 after 24 hrs by crystal violet staining method; assay type: functional, organism-based; conditions: MLS-16 MTCC 2940, 24 h
Escherichia coli [48] = assay: Antibiofilm activity against Escherichia coli MTCC 739 after 24 hrs by crystal violet staining method; assay type: functional, organism-based; conditions: MTCC 739, 24 h

Question: What does the source list for `CCCCCC(=O)Nc1cc2c(cc1F)c(=O)c(C(=O)OCC)cn2CC`?
Answer: MFC (Pichia sporocuriosa [1]): 62.5 µg/mL (≈ 166 µM); IC50 (Bacillus subtilis [2]): 4.6 µg/mL (≈ 12.2 µM); IC50 (Staphylococcus aureus [3]): 2.1 µg/mL (≈ 5.58 µM); IC50 [4]: 9.8 µM; IC50 (A549 [5]): 8.9 µM; IC50 [6]: 8.6 µM; IC50 (MCF7): 9.8 µM; IC50 [7]: 88.2 µM; Ratio IC50 (IMR-90 [8]): 9; Ratio IC50 (A549 [9]): 9.9; Ratio IC50 (SK-OV-3): 10.2; Ratio IC50 (IMR-90 [10]): 9; EC50 [11]: 33.8 µg/mL (≈ 89.8 µM); MIC (Micrococcus luteus): > 125 µg/mL; MIC (Staphylococcus aureus [12]): 3.9 µg/mL (≈ 10.4 µM); MIC (Staphylococcus aureus [13]): 15.6 µg/mL (≈ 41.4 µM); MIC (Bacillus subtilis [14]): 7.8 µg/mL (≈ 20.7 µM); MIC (Escherichia coli [15]): 15.6 µg/mL (≈ 41.4 µM); MIC (Pseudomonas aeruginosa): > 125 µg/mL; MIC (Raoultella planticola): > 125 µg/mL; MIC (Candida albicans [16]): 31.2 µg/mL (≈ 82.9 µM); MBC (Bacillus subtilis [17]): 7.8 µg/mL (≈ 20.7 µM); MBC (Staphylococcus aureus [18]): 7.8 µg/mL (≈ 20.7 µM); MBC (Staphylococcus aureus [19]): 31.2 µg/mL (≈ 82.9 µM); MBC (Escherichia coli [20]): 31.2 µg/mL (≈ 82.9 µM); MIC (Candida albicans [21]): 15.6 µg/mL (≈ 41.4 µM); MIC (Candida albicans [22]): 62.5 µg/mL (≈ 166 µM); MIC (Candida albicans [23]): 31.2 µg/mL (≈ 82.9 µM); MIC (Candida albicans [24]): 31.2 µg/mL (≈ 82.9 µM); MIC (Candida albicans [25]): 62.5 µg/mL (≈ 166 µM); MIC (Candida albicans [26]): 31.2 µg/mL (≈ 82.9 µM); MIC (Candida albicans [27]): 31.2 µg/mL (≈ 82.9 µM); MIC (Candida albicans [28]): 31.2 µg/mL (≈ 82.9 µM); MIC (Candida parapsilosis [29]): 31.2 µg/mL (≈ 82.9 µM); MIC ([Candida] aaseri [30]): 31.2 µg/mL (≈ 82.9 µM); MIC (Nakaseomyces glabratus [31]): 31.2 µg/mL (≈ 82.9 µM); MIC (Pichia kudriavzevii [32]): 62.5 µg/mL (≈ 166 µM); MIC (Pichia sporocuriosa [33]): 31.2 µg/mL (≈ 82.9 µM); MFC (Candida albicans [34]): 31.2 µg/mL (≈ 82.9 µM); MFC (Candida albicans [35]): 125 µg/mL (≈ 332 µM); MFC (Candida albicans [36]): 62.5 µg/mL (≈ 166 µM); MFC (Candida albicans [37]): 62.5 µg/mL (≈ 166 µM); MFC (Candida albicans [38]): 62.5 µg/mL (≈ 166 µM); MFC (Candida albicans [39]): 62.5 µg/mL (≈ 166 µM); MFC (Candida albicans [40]): 62.5 µg/mL (≈ 166 µM); MFC (Candida albicans [41]): 62.6 µg/mL (≈ 166 µM); MFC (Candida albicans [42]): 31.2 µg/mL (≈ 82.9 µM); MFC (Candida parapsilosis [43]): 62.5 µg/mL (≈ 166 µM); MFC ([Candida] aaseri [44]): 62.5 µg/mL (≈ 166 µM); MFC (Nakaseomyces glabratus [45]): 31.2 µg/mL (≈ 82.9 µM); MFC (Pichia kudriavzevii [46]): 62.5 µg/mL (≈ 166 µM); IC50 (Staphylococcus aureus [47]): 9.8 µg/mL (≈ 26 µM); IC50 (Escherichia coli [48]): 8.7 µg/mL (≈ 23.1 µM)
